Laboratory results as given in patent US20240166627A1, “Terpyridinedione compound or salt thereof, and preparation method and application thereof” (SHENZHEN SALUBRIS PHARMACEUTICALS CO., LTD., priority 2021, published 2024).

System: production of TNFα in U937
Experiment: Releasing TNFα from U937 induced by LPS
Assay type: cell-based
Details: Homo sapiens, U-937; PMA-differentiated U937, LPS 100 ng/ml, 4 h; read-out: IC50 value that the compound inhibits the production of TNFα
Source text: Cytokine regulation in human monocytes has shown that the p38 pathway is the key to the biosynthesis of a plurality of pro-inflammatory cytokines including TNFα, IL-1β and IL-6. Therefore, the inhibition of the p38 MAPK pathway is to reduce inflammatory response by reducing the biosynthesis of the pro-inflammatory cytokines. […] This is a reflection of the effect of the compound in the present invention to facilitate reduction of inflammation, which is useful in the treatment of various diseases, including chronic inflammatory diseases, acute inflammatory diseases, or self-inflammatory diseases. The potency and efficacy of the p38 inhibitor in blocking cytokine production are evaluated using a human U937 cell line.
A 1640 medium with an article number being A10491-01, Gibco; penicillin-streptomycin with an article number being 15140-122, Gibco; fetal bovine serum with an article number being 10099-141C, Gibco; PBS with an article number being 10010-031, Gibco; LPS with an article number being L2880, Sigma; PMA with an article number being P1585, Sigma; dimethyl sulfoxide with an article number being D8418-1L, Sigma; and a TNFα kit with an article number being K151QWD-4, MSD.
A 96-well plate with an article number being 3599, Corning; a plate-vibrating device with an article number being QB-9002, QILINBEIER; a centrifuge with an article number being 5810R, Eppendorf; a carbon dioxide incubator with an article number being 371, Thermo; a counter with an article number being C10281, Gibco; a microscope with an article number being CKX41, OLYMPUS; and an MSD plate reader with an article number being 1201 MESO SECTOR 600, MSD.
U937, ATCC with an article number being CRL-1593.2.
About 2 mg of a drug is weighted; a mother solution is prepared to 10 mM (which is calculated by free alkali) by means of DMSO; and the mother solution is diluted 10-fold to 1 mM, and then is successively diluted 4-fold to 250 μM, 62.5 μM, 15.6 μM, 3.9 μM, 0.97 μM, 0.24 μM, and 0.061 μM. The above series of diluted DMSO drugs is diluted 20-fold as working solutions by using media.
At Day 0, 10000/well inoculation is performed, stimulation is performed for 48 h with 20 ng/ml of PMA, and culture is performed at 37° C., 5% CO2. • At Day 2, 1. Supernatant is removed from differentiated U937, cleaning is performed once with PBS, and 96 μl of the 1640 medium is added. • 2. 2 μl of the compound containing (DMSO with a final concentration being 0.1%), and culture is performed for 30 min at 37° C., 5% CO2. • 3. 2 μl of LPS (a final concentration being 100 ng/ml) is added, cells are stimulated, and culture is performed for 4 h at 37° C., 5% CO2. • 4. Centrifugation is performed, supernatant is taken, and content of TNFα in the supernatant is determined through ELISA.
The content of TNFα corresponding to each well is calculated by using a standard curve in the kit.
The compound IC50 is calculated by using a GraphPad nonlinear fitting formula, and for an experimental result, refer to Table 1.

IC50	Structure (SMILES)
2.72 nM	Cc1cnc(-n2cccc(C(C)(C)O)c2=O)cc1-n1c(C)cc(OCc2ccc(Cl)cc2F)c(Cl)c1=O [Embodiment 9, 3″-chloro-4″-((4-chloro-2-fluorobenzyl)oxy)-3-(2-hydroxypropane-2-yl)-5′,6″-dimethyl-2H,2″H-[1,2′:4′,1″-terpyridine]-2,2″-diketone]
2.05 nM	Cc1cnc(-n2cccc(C(C)(C)O)c2=O)cc1-n1c(C)cc(OCc2ccc(F)cc2F)c(Cl)c1=O [Embodiment 4, 3″-chloro-4″-((2,4-difluorobenzyl)oxy)-3-(2-hydroxypropane-2-yl)-5′,6″-dimethyl-2H,2″H-[1,2′:4′,1″-terpyridine]-2,2″-diketone]
5.53 nM	Cc1cnc(-n2cccc(C(C)(C)O)c2=O)cc1-n1c(C)cc(OCc2ccc(F)c(F)c2)c(Cl)c1=O [Embodiment 23, 3″-chloro-4″-((3,4-difluorobenzyl)oxy)-3-(2-hydroxypropane-2-yl)-5′,6″-dimethyl-2H,2″H-[1,2′:4′,1″-terpyridine]-2,2″-diketone]
6.06 nM	Cc1cnc(-n2cccc(C(C)(C)O)c2=O)cc1-n1c(C)cc(OCc2ncc(F)cc2Cl)c(Cl)c1=O [Embodiment 25, 3″-chloro-4″-((3-chloro-5-fluoropyridine-2-yl)methoxy)-3-(2-hydroxypropane-2-yl)-5′,6″-dimethyl-2H,2″H-[1,2′:4′,1″-terpyridine]-2,2″-diketone]
4.26 nM	Cc1cnc(-n2cccc(C(C)(C)O)c2=O)cc1-n1c(C)cc(OCc2c(F)cccc2C#N)c(Cl)c1=O [Embodiment 13, 2-(((3″-chloro-3-(2-hydroxypropane-2-yl)-5′,6″-dimethyl-2,2″-dione-2H,2″H-[1,2′:4′,1″-terpyridine]-4″-yl)oxy)methyl)-3-fluorobenzonitrile]
8.21 nM	Cc1cnc(-n2cccc(C(C)(C)O)c2=O)cc1-n1c(C)cc(OCc2ccc(Cl)cn2)c(Cl)c1=O [Embodiment 14, 3″-chloro-4″-((5-chloropyridine-2-yl)methoxy)-3-(2-hydroxypropane-2-yl)-5′,6″-dimethyl-2H,2″H-[1,2′:4′,1″-terpyridine]-2,2″-diketone]
14.4 nM	Cc1cnc(-n2cccc(C(C)(C)O)c2=O)cc1-n1c(C)cc(OCc2ccc(C#N)cc2F)c(Cl)c1=O [Embodiment 8, 4-(((3″-chloro-3-(2-hydroxypropane-2-yl)-5′,6″-dimethyl-2,2″-dioxo-2H,2″H-[1,2 2′:4′,1″-terpyridine]-4″-yl)oxy)methyl)-3-fluorobenzonitrile]
1.6 nM	Cc1cnc(-n2cccc(C(C)(C)O)c2=O)cc1-n1c(C)cc(OCc2c(F)cccc2F)c(Cl)c1=O [Embodiment 15, 3″-chloro-4″-((2,6-difluorophenyl)methoxy)-3-(2-hydroxypropane-2-yl)-5′,6″-dimethyl-2H,2″H-[1,2′:4′,1″-terpyridine]-2,2″-diketone]
4.05 nM	Cc1cnc(-n2cccc(C(C)(C)O)c2=O)cc1-n1c(C)cc(OCc2ncc(Cl)cc2F)c(Cl)c1=O [Embodiment 5, 3″-chloro-4″-((3-fluoro-5-chloropyridine-2-yl)methoxy)-3-(2-hydroxypropane-2-yl)-5′,6″-dimethyl-2H,2″H-[1,2′:4′,1″-terpyridine]-2,2″-diketone]
2.39 nM	Cc1cnc(-n2cccc(C(C)(C)O)c2=O)cc1-n1c(C)cc(OCc2cc(F)ccc2F)c(Cl)c1=O [Embodiment 18, 3″-chloro-4″-((2,5-difluorobenzyl)oxy)-3-(2-hydroxypropane-2-yl)-5′,6″-dimethyl-2H,2″H-[1,2′:4′,1″-terpyridine]-2,2″-diketone]
7.11 nM	Cc1cnc(-n2cccc(C(C)(C)O)c2=O)cc1-n1c(C)cc(OCc2ccc(F)cn2)c(Cl)c1=O [Embodiment 21, 3″-chloro-4″-((5-fluoropyridine-2-yl)methoxy)-3-(2-hydroxypropane-2-yl)-5′,6″-dimethyl-2H,2″H-[1,2′:4′,1″-terpyridine]-2,2″-diketone]

The remaining lines, values behind:

Structure (SMILES)	IC50
Cc1cnc(-n2cccc(C(C)(C)O)c2=O)cc1-n1c(C)cc(OCc2ncccc2C)c(Cl)c1=O [Embodiment 12, 3″-chloro-4″-((3-methylpyridin-2-yl)methoxy)-3-(2-hydroxypropane-2-yl)-5′,6″-dimethyl-2H,2″H-[1,2′:4′,1″-terpyridine]-2,2″-diketone]	5.09 nM
Cc1cnc(-n2ccc(C)c(C(C)(C)O)c2=O)cc1-n1c(C)cc(OCc2ncc(F)cc2F)c(Cl)c1=O [Embodiment 29, 3″-chloro-4″-((3,5-difluoropyridine-2-yl)methoxy)-3-(2-hydroxypropane-2-yl)-4,5′,6″-trimethyl-2H, 2″H-[1,2′:4′,1″-terpyridine]-2,2″-diketone]	15.1 nM
Cc1cnc(-n2cccc(C(C)O)c2=O)cc1-n1c(C)cc(OCc2ncc(F)cc2F)c(Cl)c1=O (stereo not drawn) [Embodiment 24, 3″-chloro-4″-((3,5-difluoropyridine-2-yl)methoxy)-3-(1-hydroxyethyl)-5′,6″-dimethyl-2H,2″H-[1,2′:4 1″-terpyridine]-2,2″-diketone]	11.2 nM
Cc1cnc(-n2cccc(C(C)(C)O)c2=O)cc1-n1c(C)cc(OCc2cccnc2)c(Cl)c1=O [Embodiment 30, 3″-chloro-3-(2-hydroxypropane-2-yl)-5′,6″-dimethyl-4″-((pyridin-3-yl)methoxy)-2H,2″H-[1,2′:4′,1″-terpyridine]-2,2″-diketone]	11.9 nM
Cc1cnc(-n2cccc(C(C)(C)O)c2=O)cc1-n1c(C)cc(OCc2ncc(C3CC3)cc2F)c(Cl)c1=O [Embodiment 27, 3″-chloro-4″-((3-fluoro-5-cyclopropylpyridine-2-yl)methoxy)-3-(2-hydroxypropane-2-yl)-5′,6″-dimethyl-2H,2″H-[1,2′:4′,1″-terpyridine]-2,2″-diketone]	16.6 nM
Cc1cc(C(C)(C)O)c(=O)n(-c2cc(-n3c(C)cc(OCc4ncc(F)cc4F)c(Cl)c3=O)c(C)cn2)c1 [Embodiment 35, 3″-chloro-4″-((3,5-difluoropyridine-2-yl)methoxy)-3-(2-hydroxypropane-2-yl)-5,5′,6″-trimethyl-2H, 2″H-[1,2′:4′,1″-terpyridine]-2,2″-diketone]	24.3 nM
Cc1cnc(-n2cccc(C(C)(C)O)c2=O)cc1-n1c(C)cc(OCc2ncccc2Cl)c(Cl)c1=O [Embodiment 19, 3″-chloro-4″-((3-chloropyridine-2-yl)methoxy)-3-(2-hydroxypropane-2-yl)-5′,6″-dimethyl-2H,2″H-[1,2′:4′,1″-terpyridine]-2,2″-diketone]	8.11 nM
